Results from patent US12090163B2, “Pharmaceutical compositions” (CIPLA LIMITED, priority 2017, dated 2024).
Where two headings read alike, the source gives them in different places.

Experiments:
HIV-1NL4-3 = assay: Two-drug combination anti-HIV assay in MT4 cells, MacSynergy II analysis; format: cell-based; set-up: Antiviral Activity Synergy volume / Antiviral Activity Antagonism volume: unit not given here
Description: (§1) This two-drug combination analysis study was performed using the Prichard and Shipman MacSynergy II three dimensional model for statistical evaluation of combination anti-HIV assays. Using a standardized microtiter plate format, each combination assay was performed in MT4 cells acutely infected with HIV-1NL4-3.
(§2) MT4 cells (obtained from the NIH AIDS Research and Reference Reagent Program) were passaged in T-75 flasks prior to use in the antiviral assay. On the day preceding the assay, the cells were split 1:2 to assure they were in an exponential growth phase at the time of infection. Total cell and viability quantification was performed using a hemacytometer and trypan blue exclusion. Cells with greater than 95% cell viability were utilized in the assay. The cells were re-suspended in tissue culture medium and added to the drug-containing microtiter plates in a volume of 110 μL and at a seeding density of 5.0×10^3 cells/well.
(§3) Combination antiviral efficacy was evaluated on three identical assay plates (i.e., triplicate measurements) that included cell control wells (cells only) and virus control wells (cells plus virus). Combination cytotoxicity was evaluated in parallel on two identical assay plates (i.e., duplicate measurements) that included cell control wells.

MT4 cells = assay: Two-drug combination cytotoxicity in uninfected MT4 cells, MacSynergy II analysis
Description: as §1, §2, §3

[1] = two-drug combination with the pivalate fumarate, MT4 cells infected with HIV-1NL4-3
[2] = two-drug combination with the pivalate fumarate, uninfected MT4 cells
[3] = two-drug combination with the pivalate fumarate, HIV-1NL4-3 in MT4 cells

Molecule | Antiviral Activity Antagonism volume (HIV-1NL4-3; [1]) | Antiviral Activity Synergy volume (HIV-1NL4-3; [1]) | Interpretation Antiviral (HIV-1NL4-3; [3]) | further results
O=C1Nc2ccc(Cl)cc2[C@@](C#CC2CC2)(C(F)(F)F)O1 [Efavirenz] | −5.92 | 79.0 | – | –
Tenofovir alafenamide hemifumarate [TAF] | −47.1 | 41.2 | Additive | Cytotoxicity Antagonism volume (MT4 cells; [2]): 0/0; Cytotoxicity Synergy volume (MT4 cells; [2]): 0/0; Interpretation Cytotoxicity (MT4 cells; [2]): Additive
Nc1nc(=O)n([C@@H]2CS[C@H](CO)O2)cc1F [Emtricitabine] | −8.75 | 98.8 | – | –
COc1cc2c(cc1Cc1cccc(Cl)c1F)c(=O)c(C(=O)O)cn2[C@H](CO)C(C)C [Elvitegravir] | 0 | 67.3 | – | –
Cc1nnc(C(=O)NC(C)(C)c2nc(C(=O)NCc3ccc(F)cc3)c(O)c(=O)n2C)o1 [Raltegravir] | – | – | – | Cytotoxicity Antagonism volume (MT4 cells; [2]): −4.70; Interpretation Cytotoxicity (MT4 cells; [2]): Additive; Antiviral Activity Antagonism volume (HIV-1NL4-3): 1.61/−2.72; Antiviral Activity Synergy volume (HIV-1NL4-3): 1.61/−2.72; Interpretation Antiviral (HIV-1NL4-3): Additive
CC(C)c1nc(CN(C)C(=O)N[C@@H](CCN2CCOCC2)C(=O)N[C@H](CC[C@H](Cc2ccccc2)NC(=O)OCc2cncs2)Cc2ccccc2)cs1 [Cobicistat] | −6.12 | 0 | Additive | –
C[C@@H]1CCO[C@H]2Cn3cc(C(=O)NCc4ccc(F)cc4F)c(=O)c(O)c3C(=O)N12 [Dolutegravir] | −4.46 | 17.9 | Additive | –
C[C@H](Cn1cnc2c(N)ncnc21)OCP(=O)(O)O [Tenofovir, 9-R-[(2-phosphonomethoxy)propyl]adenine] | – | – | – | Cytotoxicity Antagonism volume (MT4 cells): 0/0; Cytotoxicity Synergy volume (MT4 cells): 0/0; Interpretation Cytotoxicity (MT4 cells; [2]): Additive; Antiviral Activity Antagonism volume (HIV-1NL4-3): 79.0/−7.08; Antiviral Activity Synergy volume (HIV-1NL4-3): 79.0/−7.08
COC(=O)N[C@H](C(=O)N[C@@H](Cc1ccccc1)[C@@H](O)CN(Cc1ccc(-c2ccccn2)cc1)NC(=O)[C@@H](NC(=O)OC)C(C)(C)C)C(C)(C)C [Atazanavir] | −3.50 | 39.1 | Additive | –
CC(C)CN(C[C@@H](O)[C@H](Cc1ccccc1)NC(=O)O[C@H]1CO[C@H]2OCC[C@H]21)S(=O)(=O)c1ccc(N)cc1 [Darunavir] | – | – | – | Antiviral Activity Antagonism volume (HIV-1NL4-3): 188/−36.5; Antiviral Activity Synergy volume (HIV-1NL4-3): 188/−36.5
Cc1ccnc2c1NC(=O)c1cccnc1N2C1CC1 [Nevirapine] | −9.09 | 47.6 | Additive | –
